Reference: patent publication US10251927B2, “Process to enhance the bioactivity of Ashwagandha extracts” (priority 2015, dated 2019)
Values joined by “and” are separate entries in the source; they are usually repeats but may differ in a detail not shown here. Equal values may be shown once. Read-outs that look alike come from different tables or passages of the source.

What was measured:
[1] = tested on: streptozotocin induced diabetic rats; experiment: Antidiabetic activity of coated extracts in different doses in streptozotocin induced diabetic rats (Example 33); assay type: in vivo, rat; details: STZ diabetic rats
Method: Different Ashwagandha extracts with coating in different dosages was evaluated for antidiabetic activity in experimental rats. Male/Female albino wistar rats were maintained as per standard guidelines: housed in polypropylene cages, under 12 hour artificial light and dark cycles at a temperature of 24±2° C., given a standard pellet diet and water ad libitum. The animals were acclimatized to the animal house conditions for a week before beginning the experiment. Diabetes was induced by injecting streptozotocin 35 mg/kg dissolved in 0.1 M citrate buffer of pH 4.5, intra-peritoneally. Five days after induction of diabetes (day 1 of the study), animals were fasted for 12 hours and the fasting blood glucose level (FBG) was estimated for diagnosing diabetic rats. Animals with FBG above 200 mg/dl were considered diabetic. The diabetic animals were randomly divided into 13 groups of 4 animals each.
Fasting blood glucose level and body weight of rats was measured initially and then at Day 7, Day 14, Day 21 and Day 28 of the study.

[2] = tested on: streptozotocin induced diabetic rats; experiment: Antidiabetic activity in streptozotocin induced diabetic rats (Example 32); assay type: in vivo, rat; details: STZ diabetic rats
Method: Male/Female albino wistar rats were maintained as per standard guidelines: housed in polypropylene cages, under 12 hour artificial light and dark cycles at a temperature of 24±2° C., given a standard pellet diet and water ad libitum. The animals were acclimatized to the animal house conditions for a week before beginning the experiment. Diabetes was induced by injecting streptozotocin 35mg/kg dissolved in 0.1 M citrate buffer of pH 4.5, intra-peritoneally. […] Animals with FBG above 200 mg/dl were considered diabetic. The diabetic animals were randomly divided into 13 groups of six animals each. One normal group was also included comprising of six normal rats.

[3] = tested on: Albino Wistar rats; experiment: Anoxia stress tolerance test (Example 16); assay type: in vivo, rat; details: 2 mg/kg p.o.
Method: Albino Wistar rats of either sex weighing 150-220 g were selected and divided into 11 groups of six each and following treatment was given after one week of acclimatization:
Animals were treated as shown above for the 3 weeks. At the end of 1st, 2nd and 3rd week i.e. on 7th, 14th and 21st day 1 h after the treatment stress was induced by placing each animal individually in the hermetic vessel of 1 L capacity to record anoxia tolerance time. The time duration of entry of the animal into the hermetic vessel and the appearance of the first convulsion was taken as time of anoxia.

[4] = tested on: rats; experiment: Forced swim test after reserpine injection, enteric and nonenteric coated extracts (Example 14); assay type: in vivo, rat; details: Reserpine 6 mg/kg i.p.; 10 mg/kg p.o.; vehicle 250, normal control 120
Method: 92 rats were divided into twenty three groups. Each group had 4 rats. The animals were trained for swimming test (15 minutes) as pre-test session and then fasted overnight. To the fasted animals, reserpine (6 mg/kg) was injected i.p. to depress the animals. After 1 hour of reserpine injection, the test samples/standard was fed orally as designated dose. After 1 hour of test sample/standard, the rats were tested using forced swim test and duration of immobility in the 5 minutes test session was recorded.

[5] = tested on: rats; experiment: Forced swim test after reserpine, normal (film), enteric and delayed release coating (Example 30); assay type: in vivo, rat; details: Reserpine 6 mg/kg i.p.; 10 mg/kg p.o.; test after 2 hour; vehicle 250, normal control 120
Method: 60 rats were divided into 15 groups comprising of 4 rats in each group. The animals were trained for swimming test (15 minutes) as pre-test session and then fasted overnight. To the fasted animals, reserpine (6 mg/kg) was injected i.p. to depress the animals. Immediately after reserpine injection, the test samples with normal (Hydroxy Propyl Cellulose; HPC), enteric (Eudragit) and delayed release (High percentage of Eudragit) coating/standard were fed orally as designated doses. After 2 hour of test sample/standard, the rats were tested using forced swim test and duration of immobility in the 5 minutes test session was recorded. In this test more immobility time indicate that animal is more depressed or stressed.

[6] = tested on: rats; experiment: Forced swim test after reserpine, powder/extracts treated at different pH (Example 29); assay type: in vivo, rat; details: Reserpine 6 mg/kg i.p.; 10 mg/kg p.o.; vehicle 250, normal control 120
Method: Ashwagandha powder/extract was added to different buffer(pH 1,2,3,5,7 and 7.4) in 1:20 ratio of Ashwagandh powder/extract: buffer. The extract -buffer solution was kept in a waterbath at 37° C. for 2 hrs. The solution was neutralised by adding base or acid solution. The neutralised solution was concentrated and dried.
The animals were trained for swimming test (15 minutes) as pre-test session and then fasted overnight. To the fasted animals, reserpine (6 mg/kg) was injected i.p. to depress the animals. After 1 hour of reserpine injection, the test samples treated at different pH/standard were fed orally as designated dose. After 1 hour of test sample/standard, the rats were tested using forced swim test and duration of immobility in the 5 minutes test session was recorded. In this test more immobility time indicate that animal is more depressed or stressed.

[7] = tested on: rats; experiment: Forced swim test after reserpine injection, different Ashwagandha extracts (Example 13); assay type: in vivo, rat; details: Reserpine 6 mg/kg i.p.; 10 mg/kg p.o.; vehicle 210, normal control 120
Method: 44 rats were divided into eleven groups having 4 rats in each group. The animals were trained for swimming test (15 minutes) as pre-test session and then fasted overnight. To the fasted animals, reserpine (6 mg/kg) was injected i.p. to depress the animals. After 1 hour of reserpine injection, the test samples/standard was fed orally as designated dose.

[8] = tested on: rats; experiment: Forced swim test after reserpine, different percentage of enteric coating (Example 31); assay type: in vivo, rat; details: Reserpine 6 mg/kg i.p.; 10 mg/kg p.o.; test after 2 hour; vehicle 250, normal control 120
Method: Efficacy Study of Different Ashwagandha Extracts Granules with Different Percentage of Enteric Coating. 44 rats were divided into 11 groups comprising of 4 rats in each group. The animals were trained for swimming test (15 minutes) as pre-test session and then fasted overnight. To the fasted animals, reserpine (6 mg/kg) was injected i.p. to depress the animals. Immediately after the reserpine injection, the test samples (ashwagandha root powder) with different percentage of enteric coating/standard were fed orally as designated dose. After 2 hour of test sample/standard, the rats were tested using forced swim test and duration of immobility in the 5 minutes test session was recorded. In this test more immobility time indicate that animal is more depressed or stressed.
The test was repeated with different percentage of coated ashwagandha extract containing 3.5% withanolide glycosides and different percentage of coated ashwagandha extract containing 35% and 80% withanolide glycosides.

[9] = tested on: wistar rats; experiment: Carrageenan induced paw edema model (Example 16); assay type: in vivo; details: Rattus norvegicus, po, 10 mg/kg p.o. single dose, read-out: Percentage inhibition (%) of inflammation
Method: Fourty five wistar rats were divided into nine groups (n=5). Following treatment was given to the rats as single dose: […] The percentage inhibition of edema was calculated for each group with respect to the vehicle received control group of animals.

[10] = before treatment, group 0.5 mg/kg

COc1ccc(Cl)cc1C(=O)NCCc1ccc(S(=O)(=O)NC(=O)NC2CCCCC2)cc1 [Glibenclamide]
Fasting blood glucose (FBG) level after 28 days ([1]; 0.5 mg/kg for 28 days): 125 mg/dL
Fasting Blood Glucose level ([1]; Day 1 (Initial), standard drug): 423 mg/dL
Fasting Blood Glucose level ([1]; Day 7, standard drug): 381 mg/dL
Fasting Blood Glucose level ([1]; Day 14, standard drug): 246 mg/dL
Fasting Blood Glucose level ([1]; Day 21, standard drug): 197 mg/dL
Fasting Blood Glucose level ([1]; Day 28, standard drug): 125 mg/dL
Fasting blood glucose (FBG) level, initial [1, 10]: 423 mg/dL
Fasting blood glucose (FBG) level after 28 days ([2]; 0.5 mg/kg for 28 days): 124 mg/dL
Fasting Blood Glucose level ([2]; Day 1 (Initial), standard drug): 422 mg/dL
Fasting Blood Glucose level ([2]; Day 7, standard drug): 380 mg/dL
Fasting Blood Glucose level ([2]; Day 14, standard drug): 245 mg/dL
Fasting Blood Glucose level ([2]; Day 21, standard drug): 196 mg/dL
Fasting Blood Glucose level ([2]; Day 28, standard drug): 124 mg/dL
Fasting blood glucose (FBG) level, initial [2, 10]: 422 mg/dL

CN1C(=O)CN=C(c2ccccc2)c2cc(Cl)ccc21 [Diazepam]
Duration of anoxia stress tolerance ([3]; First week): 34.50 min
Duration of anoxia stress tolerance ([3]; Second week): 37.33 min
Duration of anoxia stress tolerance ([3]; Third week): 37.00 min

CNCCC(Oc1ccc(C(F)(F)F)cc1)c1ccccc1 (centres unmarked) [Fluoxetine]
Immobility time [4]: 122 s
Immobility time [5]: 120 s
Immobility time [6]: 122 s and 120 s
Immobility time [7]: 122 s
Immobility time [8]: 120 s

COc1ccc2c(c1)c(CC(=O)O)c(C)n2C(=O)c1ccc(Cl)cc1 [Indomethacin]
inhibition at 10 mg/kg ([9]; 0.5 hr): 28%
inhibition at 10 mg/kg ([9]; 1 hr): 65%
inhibition at 10 mg/kg ([9]; 2 hr): 80%
inhibition at 10 mg/kg ([9]; 3 hr): 86%
